# Measurements as given in patent US20220340955A1, “METHODS FOR DIAGNOSING AND TREATMENT MONITORING OF ADNP-DEFICIENT PATIENTS” (RAMOT AT TEL-AVIV UNIVERSITY LTD., priority 2019, published 2022).
# How the values were obtained:
# [1] = Body weight of Adnp+/− mice; assay type: in vivo, mouse; conditions: male Adnp+/− cohort, NAP treatment
# Protocol: (§1) All procedures involving animals in the Adnp-mutated mouse model were approved by the Animal Care and Use Committee of Tel Aviv University and the Israeli Ministry of Health. Adnp heterozygous mice (Adnp^+/−) on an ICR background (an outbred mouse line), a model for the ADNP syndrome (Hacohen-Kleiman et al. 2018), were housed in a 12-h light/12-h dark cycle facility with free access to rodent chow and water. Genotyping was performed by Transnetyx (Memphis, Tenn.). After genotyping, the mice were housed in separate cages based on sex, genotype and treatment (up to five mice per cage), for two weeks prior to beginning of NAP treatment.
# NAP peptide was custom made as described in (Hacohen-Kleiman et al. 2018). Prior to behavioral tests, intranasal treatment was administered daily to 1-month-old male and female mice (0.5 μg/5 μl/mouse/dose). For intranasal administration, the peptide was dissolved in a vehicle solution, termed DD, in which each milliliter included 7.5 mg of NaCl, 1.7 mg of citric acid monohydrate, 3 mg of disodium phosphate dihydrate, and 0.2 mg of benzalkonium chloride solution (50%). Each mouse was handheld in a semi-supine position with nostrils facing the investigator. A pipette tip was used to administer 5 μl/two nostrils. The mouse was handheld until the solution was entirely absorbed (˜10 s). […]
# [2] = system: human microbiota-harboring mice suffering from subacute ileitis; conditions: gut inflammation model; cited from earlier work
# Adnp p.Tyr718* mice = test: Visual evoked potential in CRISPR/Cas9 Adnp p.Tyr718* mice; assay type: in vivo, mouse; conditions: Adnp p.Tyr718* mice (discovered in males), NAP treatment
# Excerpt: We have developed another Adnp mutated mouse model using CRISP/Cas9 technology. The mice carry the most prevalent ADNP syndrome mutation (e.g. Adnp p.Tyr718* in the mouse corresponding to ADNP pTyr719* in the human). […] Monitoring visual evoked potential provides an objective observation of aberrant ADNP activity on one hand and its correction by treatment, e.g. by NAP peptide on another hand. Given the results in Example 1, gut microbiota samples are now being analyzed and are correlated also to visual evoked potential responses of males and females, coupling biomarkers for better diagnostics and clinical monitoring. The following bacteria in gut microbiota are tested and correlated with changes in visual evoked potential in subjects having aberrant ADNP activity: Bifidobacterium, Clostridium, Bacteroides, Faecalibacterium, Eubacterium, Ruminococcus, Peptococcus, Peptostreptococcus, Parabacteroides, Escherichia coli, Verrucomicrobia, Lactobacillus, Clostridium coccoides group, Mouse Intestinal Bacteroides (MIB) Enterococcus genus (gEncocc) and Clostridium Cluster IV (sgClep).
# Adnp+/− mice [3] = test: Open field behavior of Adnp+/− mice; assay type: in vivo, mouse
# Protocol: as §1
# (§2) NAP peptide was custom made as described in (Hacohen-Kleiman et al. 2018). Prior to behavioral tests, intranasal treatment was administered daily to 1-month-old male and female mice (0.5 μg/5 μl/mouse/dose). For intranasal administration, the peptide was dissolved in a vehicle solution, termed DD, in which each milliliter included 7.5 mg of NaCl, 1.7 mg of citric acid monohydrate, 3 mg of disodium phosphate dihydrate, and 0.2 mg of benzalkonium chloride solution (50%). Each mouse was handheld in a semi-supine position with nostrils facing the investigator. A pipette tip was used to administer 5 μl/two nostrils. The mouse was handheld until the solution was entirely absorbed (˜10 s). Nasal NAP application was performed daily, once a day, for 45 days (5 days a week). After 45 days of treatment, in days of scheduled behavioral tests, NAP was applied 2 h before the test.
# The test provides a unique opportunity to systematically assess novel environment exploration, general locomotor activity, and anxiety-related behavior in rodents. […] The distance moved and time spent in the entire open field, as well as in its inner defined quadrants (center, border) was recorded using the EthoVision XT video tracking system and software (Noldus Inc. Leesburg, VA). […]
# [4] = system: murine intestinal microbiota; test: Murine fecal microbiota analysis (qRT-PCR, 16S rRNA gene) in Adnp+/− mouse model; assay type: in vivo
# Protocol: as §1, §2
# Fecal pellets (1-2/mice) were collected 45 days after the beginning of treatment (NAP or DD) and stored at −80° C. until DNA purification procedures. The samples were thawed on ice mixed with 400 μl of sterile PBS/sample followed by mechanical disruption of the sample using a BeadBug microtube homogenizer (Daniel Biotech, Rehovot, Israel) for 2 minutes at 4,000 rpm. A 25 μl sample of lysozyme solution (20 mg/ml) was added, and the samples were incubated with shaking for 30 min at 37° C. on a thermo shaker racking platform. Next, 20 μl proteinase K (20 mg/ml) was included and the samples were thoroughly mixed with 400 μl of sterile lysis buffer (20 mM Tris HCl, 300 mM NaCl, 400 mM EDTA and 1% SDS) and incubated with shaking for 60 min at 56° C. on a thermo shaker racking platform. Next, 300 mg sterile zirconium beads and 150 μl of phenol was added to the samples followed by homogenization (twice for 40 sec. at 4,000 rpm, Daniel biotech, Rehovot, Israel). Then, 150 μl of CI-solution (chloroform-isoamyl alcohol 24:1) was added, mixed and submitted for centrifugation 13,000 rpm at room temperature for 5 minutes, Eppendorf Centrifuge 5417R (Eppendorf, Hamburg, Germany). A 600 μl volume of supernatant was removed and placed in a sterile 2 mL Eppendorf tube. 150 μl of CI-solution was then included and the samples were subjected to centrifugation as above. A 400 μl of aqueous, clear top phase was removed and placed in a sterile 2 mL Eppendorf tube. Then, the 400 μl of DNA solution was mixed with 100 μl of precipitation solution (40 mM EDTA 1.2M sodium acetate and 4 mg/ml glycogen). 1.3 mL of ice-cold 100% ethanol was added, the samples were then mixed and stored over night at −20° C. for DNA precipitation followed by centrifugation (13,000 rpm) at 4° C. The supernatant was discarded and the pellet washed with 500 μl ice-cold 70% ethanol followed by centrifugation for 5 minutes at 13,000 rpm, 4° C. (this step was repeated twice). The pellet was dried in the Speed Vac (Eppendorf Concentrator 5301) for 15 minutes and then re-suspended in 100 μl sterile water. Next, the samples were mixed on the shaker for 10 minutes at room temperature. In the next step, the samples were further purified using Qiagen Purification Kit according to the manufacturer's instructions ([…], Hilden, Germany). DNA was eluted in 100 μl sterile water and stored at −20° C. for long storage. […]
# Adnp+/− mice [5] = conditions: exogenous administration of NAP; cited from earlier work
# [6] = female Adnp+/− mice, fecal samples, intranasal NAP 0.5 μg/mouse daily, 45 days
# [7] = females, genotype and NAP treatment effect
# [8] = male Adnp+/− mice, fecal samples, intranasal NAP 0.5 μg/mouse daily, 45 days
# [9] = males, genotype and NAP treatment effect
sequence,measurement,setting,value
NAPVSIPQ,Body weight,[1],increased weight
same,Anti-inflammatory effects,[2],anti-inflammatory NAP effects were observed
same,Aberrant visual evoked potential patterns,Adnp p.Tyr718* mice,rapidly corrected
same,Behavioral changes (overall effect of NAP treatment),Adnp+/− mice [3]; Adnp deficient mice,partially reverses
same,Time spent in the center area (open field),"Adnp+/− mice [3]; Adnp+/+, Adnp+/− and NAP treated Adnp+/− mice, FIG. 3B",did not reveal significant changes
same,Frequency entrance to the center area (open field),"Adnp+/− mice [3]; untreated male Adnp+/− mice vs Adnp+/+ (p<0.01) and vs NAP treated Adnp+/− mice (p<0.05), FIG. 3A",significantly higher frequency entrance in to the center area compared to Adnp^+/+ mice and NAP treated Adnp^+/− mice
same,Changes in microbiota (overall effect of NAP treatment),[4]; Adnp deficient mice,partially reverses
same,Total Eubacterial loads,"[4]; female Adnp+/+ mice, fecal samples, NAP treated (data not shown)",essentially lower total Eubacterial loads
same,Trending genotype increases in microbiota groups corrected by NAP treatment,[4]; female Adnp+/− mice,significantly corrected two trending genotype increases
same,Clostridium coccoides group (Coer) abundance,[4]; [6],significant NAP-dependent decreases
same,Enterococcus genus (gEncocc) numbers,[4]; [6],lower fecal Enterococcus genus (gEncocc) numbers
same,Bacteroides/Prevotella spp (Bac) abundance,[4]; [7],neither affected by genotype nor by NAP treatment
same,Bifidobacterium genus (BIF) abundance,[4]; [7],neither affected by genotype nor by NAP treatment
same,Enterobacteriaceae (Entero) abundance,[4]; [7],neither affected by genotype nor by NAP treatment
same,Eubacteriaceae (EubV3) abundance,[4]; [7],neither affected by genotype nor by NAP treatment
same,Mouse Intestinal Bacteroides (MIB) abundance,[4]; [7],neither affected by genotype nor by NAP treatment
same,Clostridium coccoides group (Coer) intestinal numbers,"[4]; male Adnp+/+ controls, NAP treated compared to placebo treated (data not shown)",higher intestinal numbers
same,Genotype affected microbiota groups whose deficit was reversed by NAP treatment,[4]; male Adnp+/− mice,four out of five
same,Bifidobacterium genus (BIF) abundance,[4]; [8],decreased to control levels
same,Clostridium coccoides group (Coer) abundance,[4]; [8],except for Clostridium coccoides group (Coer) decreased to control levels
same,Lactobacillus group (Lacto) abundance,[4]; [8],decreased to control levels
same,Mouse Intestinal Bacteroides (MIB) abundance,[4]; [8],decreased to control levels
same,Total Eubacterial loads (EubV3),[4]; [8],decreased to control levels
same,Bacteroides/Prevotella spp (Bac) abundance,[4]; [9],neither affected by genotype nor by NAP treatment
same,Clostridium Cluster IV (sgClep) abundance,[4]; [9],neither affected by genotype nor by NAP treatment
same,Enterobacteriaceae (Entero) abundance,[4]; [9],neither affected by genotype nor by NAP treatment
same,Enterococcus genus (gEncocc) abundance,[4]; [9],neither affected by genotype nor by NAP treatment
same,Behavioral and developmental defects,Adnp+/− mice [5],at least partially reverse behavioral and developmental defects
